Reference: patent publication US20120225862A1, “HETEROARYL BENZAMIDES, COMPOSITIONS AND METHODS OF USE” (AUCKLAND UNIVSERVICES LIMITED, priority 2009, published 2012)

What was measured:
mTOR = biological target: T1, mTOR (Homo sapiens, UniProt P42345); assay: In vitro kinase activity (Millipore KinaseProfiler): mTOR; assay type: biochemical; conditions: no head or unit printed
T1 construct: purchased Millipore (KinaseProfiler service)
Procedure: (§1) All cells were grown in DMEM+10% FCS. ACHN and ACHN shVHL were a kind gift from George V. Thomas (UCLA). HIF overexpressing clones were described previously. Transfection of RNA oligos were performed with DnarmaFECT Reagent 1 (Dharmcon), according to manufacturer's directions. ON-TARGETplus SMART pools against HIF-1β/ARNT were purchased from Dharmacon. Glut1 was detected with anti-GLUT1 antibody from NeoMarkers/LabVision/Fisher. Pyruvate/lactate levels and hexokinase activity were both measured by fluorometric assay (BioVision and Sigma-Aldrich, respectively). ATP levels were measured by bioluminescence assay (ATP Determination Kit from Molecular Probes/Invitrogen). In vitro kinase activities were performed by Millipore KinaseProfiler. Affi-Gel 10 (BioRad) activated affinity media was coupled to analogs to generate immobilized affinity linkers.
(§2) We next wanted to investigate the differential glucose uptake between RCCs with and without VHL treated with compound 47 that subsequently lead to the selective death of VHL-deficient cells. We first examined the message levels of the two main glucose transporters, GLUT1 and GLUT2 by quantitative real-time PCR. GLUT1 is an inducible, high-affinity glucose transporter, while GLUT2 is the glucose transporter responsible for basal glucose uptake. […] Cells deficient in VHL had very low levels of GLUT2 that could barely be detected (FIG. 3J). […]

Syk = biological target: T2, Syk (Homo sapiens, UniProt P43405); assay: In vitro kinase activity (Millipore KinaseProfiler): Syk; assay type: biochemical; conditions: no head or unit printed
T2 construct: purchased Millipore (KinaseProfiler service)
Procedure: as §1, §2

CDK1/cyclinB = biological target: T3, CDK1/cyclinB (Homo sapiens, UniProt P06493); assay: In vitro kinase activity (Millipore KinaseProfiler): CDK1/cyclinB; assay type: biochemical; conditions: no head or unit printed
T3 construct: purchased Millipore (KinaseProfiler service)
Procedure: as §1, §2

PKA = biological target: T4, PKA (Homo sapiens, UniProt P17612); assay: In vitro kinase activity (Millipore KinaseProfiler): PKA; assay type: biochemical; conditions: no head or unit printed
T4 construct: purchased Millipore (KinaseProfiler service)
Procedure: as §1, §2

RCC4 and RCC4/VHL cells = assay: Oxygen consumption (Oxytherm electrode); assay type: cell-based, human; conditions: 5 μM, FIG. 3F
Procedure: Following treatment with vehicle or drug, cells were trypsinized, suspended at 5 million cells per ml in DMEM+10% FCS, and oxygen consumption was measured in 0.5 ml volume using an Oxytherm electrode unit (Hansatech).

c-RAF = biological target: T5, c-RAF (Homo sapiens, UniProt P04049); assay: In vitro kinase activity (Millipore KinaseProfiler): c-RAF; assay type: biochemical; conditions: no head or unit printed
T5 construct: purchased Millipore (KinaseProfiler service)
Procedure: as §1, §2

CHK1 = biological target: T6, CHK1 (Homo sapiens, UniProt O14757); assay: In vitro kinase activity (Millipore KinaseProfiler): CHK1; assay type: biochemical; conditions: no head or unit printed
T6 construct: purchased Millipore (KinaseProfiler service)
Procedure: as §1, §2

IRAK1 = biological target: T7, IRAK1 (Homo sapiens, UniProt P51617); assay: In vitro kinase activity (Millipore KinaseProfiler): IRAK1; assay type: biochemical; conditions: no head or unit printed
T7 construct: purchased Millipore (KinaseProfiler service)
Procedure: as §1, §2

DYRK2 = biological target: T8, DYRK2 (Homo sapiens, UniProt Q92630); assay: In vitro kinase activity (Millipore KinaseProfiler): DYRK2; assay type: biochemical; conditions: no head or unit printed
T8 construct: purchased Millipore (KinaseProfiler service)
Procedure: as §1, §2

JAK2 = biological target: T9, JAK2 (Homo sapiens, UniProt O60674); assay: In vitro kinase activity (Millipore KinaseProfiler): JAK2; assay type: biochemical; conditions: no head or unit printed
T9 construct: purchased Millipore (KinaseProfiler service)
Procedure: as §1, §2

Abl = biological target: T10, Abl (Homo sapiens, UniProt P00519); assay: In vitro kinase activity (Millipore KinaseProfiler): Abl; assay type: biochemical; conditions: no head or unit printed
T10 construct: purchased Millipore (KinaseProfiler service)
Procedure: as §1, §2

Met = biological target: T11, Met (Homo sapiens, UniProt P08581); assay: In vitro kinase activity (Millipore KinaseProfiler): Met; assay type: biochemical; conditions: no head or unit printed
T11 construct: purchased Millipore (KinaseProfiler service)
Procedure: as §1, §2

Plk3 = biological target: T12, Plk3 (Homo sapiens, UniProt Q9H4B4); assay: In vitro kinase activity (Millipore KinaseProfiler): Plk3; assay type: biochemical; conditions: no head or unit printed
T12 construct: purchased Millipore (KinaseProfiler service)
Procedure: as §1, §2

RCC4/VHL = assay: Clonogenic survival, RCC4/VHL; assay type: cell-based, human; conditions: RCC4/VHL (wild-type VHL), 5 μM, 10 days
Procedure: Three hundred cells were plated into 60-mm tissue culture dishes in DMEM. The next day, cells were treated with vehicle or drug and were further incubated for an additional 10 days. After 10 days, the media was removed and colonies were fixed and stained in 95% ethanol and 0.1% crystal violet for 15 minutes. The stain was removed and plates were washed in deionized water. Colonies were quantified. All conditions were measured in triplicate and all experiments were performed in triplicate.
For 2,3-bis[2-methoxy-4-nitro-5-sulfophenyl]-2H-tetrazolium-5-carboxanilide (XTT) assays, five thousand cells were plated in 96-well plates. The next day, vehicle (DMSO) or drug was added by serial dilution. Four days later, media were aspirated, XTT solution (0.3 mg/ml of XTT (Sigma), 2.65 mg/ml N-methyl dibenxopyrazine methyl sulfate (Simga) in phenol red-free media) was added, and the plates were incubated at 37° C. for 1-2 hours. Metabolism of XTT was quantified by measuring the absorbance at 450 nm. IC50s were calculated using linear interpolation. For clonogenic survival assays, three hundred cells were plated per 60 mm tissue culture dish. The cells were allowed to attach overnight and then treated with vehicle or drug for 14 days. […] All conditions were measured in triplicate and each experiment was done in duplicate or triplicate. […] Live and dead cells were counted on a hematocytometer.

MAPKAP-K2 = biological target: T13, MAPKAP-K2 (Homo sapiens, UniProt P49137); assay: In vitro kinase activity (Millipore KinaseProfiler): MAPKAP-K2; assay type: biochemical; conditions: no head or unit printed
T13 construct: purchased Millipore (KinaseProfiler service)
Procedure: as §1, §2

MKK4 = biological target: T14, MKK4 (Mus musculus, UniProt P47809); assay: In vitro kinase activity (Millipore KinaseProfiler): MKK4; assay type: biochemical; conditions: no head or unit printed
T14 construct: purchased Millipore (KinaseProfiler service)
Procedure: as §1, §2

SAPK2a = biological target: T15, SAPK2a (Homo sapiens, UniProt Q16539); assay: In vitro kinase activity (Millipore KinaseProfiler): SAPK2a; assay type: biochemical; conditions: no head or unit printed
T15 construct: purchased Millipore (KinaseProfiler service)
Procedure: as §1, §2

T11 sequence (P08581 25-1390): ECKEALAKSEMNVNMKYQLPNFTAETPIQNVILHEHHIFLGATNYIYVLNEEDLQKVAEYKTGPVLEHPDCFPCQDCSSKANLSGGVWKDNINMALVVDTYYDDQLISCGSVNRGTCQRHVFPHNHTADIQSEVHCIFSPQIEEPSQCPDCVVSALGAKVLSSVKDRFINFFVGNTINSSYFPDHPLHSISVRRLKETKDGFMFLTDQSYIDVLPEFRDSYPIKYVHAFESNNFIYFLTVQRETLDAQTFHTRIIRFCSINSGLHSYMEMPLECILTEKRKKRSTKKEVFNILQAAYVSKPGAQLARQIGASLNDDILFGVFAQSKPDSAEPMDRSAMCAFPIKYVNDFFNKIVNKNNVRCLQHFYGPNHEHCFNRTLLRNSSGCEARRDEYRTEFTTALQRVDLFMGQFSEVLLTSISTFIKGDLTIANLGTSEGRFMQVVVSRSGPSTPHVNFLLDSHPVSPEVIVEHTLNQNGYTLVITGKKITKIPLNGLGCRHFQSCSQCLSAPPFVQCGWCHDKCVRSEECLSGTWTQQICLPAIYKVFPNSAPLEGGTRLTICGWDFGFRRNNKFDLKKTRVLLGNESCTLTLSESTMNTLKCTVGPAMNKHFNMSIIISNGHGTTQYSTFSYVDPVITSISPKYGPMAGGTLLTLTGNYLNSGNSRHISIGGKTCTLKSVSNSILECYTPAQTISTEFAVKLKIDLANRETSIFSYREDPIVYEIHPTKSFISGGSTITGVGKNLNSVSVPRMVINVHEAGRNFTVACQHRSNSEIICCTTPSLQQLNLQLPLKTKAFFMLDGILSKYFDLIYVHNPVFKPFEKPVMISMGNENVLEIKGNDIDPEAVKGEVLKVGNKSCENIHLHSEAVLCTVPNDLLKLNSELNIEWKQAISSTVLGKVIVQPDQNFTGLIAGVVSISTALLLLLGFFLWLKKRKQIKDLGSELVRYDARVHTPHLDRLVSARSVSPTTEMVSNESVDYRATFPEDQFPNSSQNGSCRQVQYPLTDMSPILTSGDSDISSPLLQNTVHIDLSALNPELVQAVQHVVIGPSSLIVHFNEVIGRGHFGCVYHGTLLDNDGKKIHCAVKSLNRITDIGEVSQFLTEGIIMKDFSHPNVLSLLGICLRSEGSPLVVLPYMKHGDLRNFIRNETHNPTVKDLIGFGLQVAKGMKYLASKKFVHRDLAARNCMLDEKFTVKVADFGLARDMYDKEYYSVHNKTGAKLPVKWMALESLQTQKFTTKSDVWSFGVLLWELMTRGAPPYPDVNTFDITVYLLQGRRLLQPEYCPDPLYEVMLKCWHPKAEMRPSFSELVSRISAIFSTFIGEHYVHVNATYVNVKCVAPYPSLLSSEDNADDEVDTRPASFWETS
T13 sequence (P49137 whole entry, species assumed): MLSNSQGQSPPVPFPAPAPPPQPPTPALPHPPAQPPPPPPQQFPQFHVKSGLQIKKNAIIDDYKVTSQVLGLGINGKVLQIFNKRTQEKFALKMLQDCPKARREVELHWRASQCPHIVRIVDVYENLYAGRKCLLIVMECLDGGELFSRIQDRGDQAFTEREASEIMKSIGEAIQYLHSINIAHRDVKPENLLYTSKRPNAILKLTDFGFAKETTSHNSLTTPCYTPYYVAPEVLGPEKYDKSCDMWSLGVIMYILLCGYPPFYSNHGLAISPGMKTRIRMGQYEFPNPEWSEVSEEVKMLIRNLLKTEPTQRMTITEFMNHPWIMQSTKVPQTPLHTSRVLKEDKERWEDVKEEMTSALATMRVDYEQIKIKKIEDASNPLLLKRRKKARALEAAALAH
T14 sequence (P47809 2-397 limits assumed): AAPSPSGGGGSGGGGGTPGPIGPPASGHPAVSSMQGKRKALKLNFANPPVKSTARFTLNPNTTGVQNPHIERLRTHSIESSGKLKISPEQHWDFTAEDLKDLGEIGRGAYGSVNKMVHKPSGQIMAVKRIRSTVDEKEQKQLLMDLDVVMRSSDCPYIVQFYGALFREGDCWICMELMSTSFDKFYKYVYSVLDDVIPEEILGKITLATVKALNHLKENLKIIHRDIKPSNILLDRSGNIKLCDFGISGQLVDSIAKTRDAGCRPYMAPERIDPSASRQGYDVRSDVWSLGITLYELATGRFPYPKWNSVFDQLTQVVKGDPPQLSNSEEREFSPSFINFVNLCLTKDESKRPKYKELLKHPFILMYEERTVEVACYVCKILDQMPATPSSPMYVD
T12 sequence (Q9H4B4 whole entry, species assumed): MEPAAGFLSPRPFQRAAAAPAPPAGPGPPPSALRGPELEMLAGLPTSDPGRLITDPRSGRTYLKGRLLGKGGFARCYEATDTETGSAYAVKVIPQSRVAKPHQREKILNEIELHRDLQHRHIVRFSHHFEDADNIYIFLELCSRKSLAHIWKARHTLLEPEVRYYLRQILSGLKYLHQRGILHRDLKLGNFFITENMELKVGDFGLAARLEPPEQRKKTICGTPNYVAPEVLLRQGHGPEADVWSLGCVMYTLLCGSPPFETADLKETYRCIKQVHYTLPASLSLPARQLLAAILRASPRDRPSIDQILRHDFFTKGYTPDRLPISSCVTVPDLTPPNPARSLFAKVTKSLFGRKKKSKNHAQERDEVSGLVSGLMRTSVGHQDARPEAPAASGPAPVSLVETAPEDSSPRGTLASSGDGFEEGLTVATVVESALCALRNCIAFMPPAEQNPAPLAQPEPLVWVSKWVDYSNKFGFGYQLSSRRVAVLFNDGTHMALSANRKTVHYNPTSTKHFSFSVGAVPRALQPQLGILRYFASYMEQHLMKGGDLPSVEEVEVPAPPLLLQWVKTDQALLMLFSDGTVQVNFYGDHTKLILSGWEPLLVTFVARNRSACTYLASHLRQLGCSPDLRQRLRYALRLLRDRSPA
T10 sequence (P00519 whole entry, species assumed): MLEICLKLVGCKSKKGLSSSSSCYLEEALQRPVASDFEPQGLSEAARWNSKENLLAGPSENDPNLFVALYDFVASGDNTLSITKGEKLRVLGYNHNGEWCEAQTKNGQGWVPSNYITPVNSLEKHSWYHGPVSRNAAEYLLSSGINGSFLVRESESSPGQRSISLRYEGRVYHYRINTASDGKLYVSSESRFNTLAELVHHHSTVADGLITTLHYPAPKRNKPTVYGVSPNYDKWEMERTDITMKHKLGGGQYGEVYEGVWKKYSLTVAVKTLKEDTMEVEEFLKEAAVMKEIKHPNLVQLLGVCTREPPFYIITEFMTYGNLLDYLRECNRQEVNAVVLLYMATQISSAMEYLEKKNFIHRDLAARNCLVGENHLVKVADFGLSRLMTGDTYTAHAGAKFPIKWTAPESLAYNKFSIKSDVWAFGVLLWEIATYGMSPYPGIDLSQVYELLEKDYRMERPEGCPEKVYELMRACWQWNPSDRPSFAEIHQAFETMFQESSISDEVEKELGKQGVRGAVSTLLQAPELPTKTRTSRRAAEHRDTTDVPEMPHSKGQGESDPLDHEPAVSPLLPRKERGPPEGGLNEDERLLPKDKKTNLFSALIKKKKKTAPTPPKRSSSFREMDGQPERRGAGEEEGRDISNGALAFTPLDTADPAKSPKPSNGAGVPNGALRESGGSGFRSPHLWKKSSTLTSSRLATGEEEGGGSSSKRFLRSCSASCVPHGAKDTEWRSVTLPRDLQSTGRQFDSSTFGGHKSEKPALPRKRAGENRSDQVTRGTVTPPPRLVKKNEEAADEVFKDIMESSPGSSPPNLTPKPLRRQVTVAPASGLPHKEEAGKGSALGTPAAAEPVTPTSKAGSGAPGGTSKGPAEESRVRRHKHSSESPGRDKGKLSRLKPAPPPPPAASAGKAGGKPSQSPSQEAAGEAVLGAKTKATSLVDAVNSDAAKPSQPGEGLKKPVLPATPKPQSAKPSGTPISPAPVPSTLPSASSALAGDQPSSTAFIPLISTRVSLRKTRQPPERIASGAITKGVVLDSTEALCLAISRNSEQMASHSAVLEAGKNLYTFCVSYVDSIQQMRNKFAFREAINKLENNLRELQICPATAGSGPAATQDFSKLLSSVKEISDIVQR
T9 sequence (O60674 whole entry, species assumed): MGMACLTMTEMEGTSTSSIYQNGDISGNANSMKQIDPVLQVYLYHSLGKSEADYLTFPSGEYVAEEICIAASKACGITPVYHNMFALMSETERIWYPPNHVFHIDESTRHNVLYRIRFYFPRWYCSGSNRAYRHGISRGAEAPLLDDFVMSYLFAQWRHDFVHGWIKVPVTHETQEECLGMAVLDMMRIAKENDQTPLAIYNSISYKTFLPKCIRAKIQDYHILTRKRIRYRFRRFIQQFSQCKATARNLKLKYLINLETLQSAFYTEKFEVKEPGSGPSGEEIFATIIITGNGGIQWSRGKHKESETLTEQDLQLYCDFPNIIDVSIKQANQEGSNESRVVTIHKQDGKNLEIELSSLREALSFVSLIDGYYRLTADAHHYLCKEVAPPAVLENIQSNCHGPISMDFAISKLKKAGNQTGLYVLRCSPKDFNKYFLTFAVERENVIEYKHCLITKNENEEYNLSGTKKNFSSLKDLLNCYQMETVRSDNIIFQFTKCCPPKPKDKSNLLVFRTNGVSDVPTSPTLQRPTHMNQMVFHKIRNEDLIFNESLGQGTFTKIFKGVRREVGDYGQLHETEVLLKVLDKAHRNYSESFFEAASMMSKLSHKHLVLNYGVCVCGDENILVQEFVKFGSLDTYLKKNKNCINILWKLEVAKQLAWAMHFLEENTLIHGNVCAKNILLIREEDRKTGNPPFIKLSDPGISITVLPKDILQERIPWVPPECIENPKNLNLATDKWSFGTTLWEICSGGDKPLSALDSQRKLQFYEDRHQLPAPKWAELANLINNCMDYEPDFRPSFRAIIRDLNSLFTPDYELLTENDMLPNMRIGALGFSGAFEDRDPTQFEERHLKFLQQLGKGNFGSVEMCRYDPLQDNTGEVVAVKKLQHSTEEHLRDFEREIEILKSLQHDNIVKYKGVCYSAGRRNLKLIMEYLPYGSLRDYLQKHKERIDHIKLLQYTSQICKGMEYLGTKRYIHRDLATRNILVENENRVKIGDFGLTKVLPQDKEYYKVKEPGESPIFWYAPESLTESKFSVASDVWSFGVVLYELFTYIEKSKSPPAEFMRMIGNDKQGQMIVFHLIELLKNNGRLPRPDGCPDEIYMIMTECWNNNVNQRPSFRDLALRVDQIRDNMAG

Q: Which mTOR kinase activity (mTOR) does the source give for CC(C)(C)c1ccc(S(=O)(=O)NCc2ccc(C(=O)Nc3cccnc3)cc2)cc1 [Example 38, 4-((4-tert-Butylphenylsulfonamido)methyl)-N-(pyridin-3-yl)benzamide] here?
A: The mTOR kinase activity was 101.

Q: What about the Syk kinase activity (Syk) of the same compound?
A: The Syk kinase activity was 94.

Q: And the CDK1/cyclinB kinase activity (CDK1/cyclinB)?
A: Its CDK1/cyclinB kinase activity is 96.

Q: And the PKA kinase activity (PKA)?
A: Its PKA kinase activity is 96.

Q: What about the “oxygen consumption, treated vs untreated cells” value (RCC4 and RCC4/VHL cells) of the same compound?
A: Its value is “no difference in oxygen consumption”.

Q: And the c-RAF kinase activity (c-RAF)?
A: Its c-RAF kinase activity is 103.

Q: And the CHK1 kinase activity (CHK1)?
A: Its CHK1 kinase activity is 114.

Q: What about the IRAK1 kinase activity (IRAK1) of the same compound?
A: The IRAK1 kinase activity was 105%.

Q: And the DYRK2 kinase activity (DYRK2)?
A: Its DYRK2 kinase activity is 94%.

Q: And the JAK2 kinase activity (JAK2)?
A: The JAK2 kinase activity was 113.

Q: And the Abl kinase activity (Abl)?
A: The Abl kinase activity was 108.

Q: What about the Met kinase activity (Met) of the same compound?
A: The Met kinase activity was 105.

Q: And the Plk3 kinase activity (Plk3)?
A: The Plk3 kinase activity was 104.

Q: And the “clonogenic survival of RCC4/VHL” value (RCC4/VHL)?
A: The value was “relatively unaffected”.

Q: What about the MAPKAP-K2 kinase activity (MAPKAP-K2) of the same compound?
A: The MAPKAP-K2 kinase activity was 87.

Q: What about the MKK4 kinase activity (MKK4) of the same compound?
A: The MKK4 kinase activity was 128.

Q: What about the SAPK2a kinase activity (SAPK2a) of the same compound?
A: The SAPK2a kinase activity was 127.
